We go through one molecule from US12213992B2, “Iron containing composition and use thereof” (RENAPHARMA AB, priority 2018, dated 2025).

For one series, the system named is malondialdehyde (MDA). The series can be described thus: Toxicity study: lipid peroxidation (MDA measurement). It counts as in vivo, CD1 mice. To be noted: anaemic mice, 20 mM Fe, 100 μL, 10 days; ANOVA one-way test. The method, then:
(§1) After the last dose, the mice were provided with water ad libitum for 18 hours before sacrifice and collection of tissues. Tissues were stored at −70° C. until subjection to various toxicological investigations. […] Tests were made with respect to the following parameters: • 1. Lipid peroxidation (MDA measurement) • 2. GSH levels • 3. Catalase levels • 4. Non-heme iron levels • 5. Plasma ferritin levels Methodology
(§2) The collection of the duodenum was achieved by taking the first 5 cm after the pylorus. The section was opened transversally, and the mucosa was removed using a glass slide.
Lipid peroxidation was measured by the detection of the endpoint product malondialdehyde (MDA), using the MDA microplate assay kit from Cohesion Biosciences (catalog number CAK1011). Liver tissue (70 mg) or duodenal mucosa (20 mg) were weighed and homogenized in assay buffer according with instructions of the kit manufacturer. All the samples were kept in ice during the assay. The dye reagent (Thiobarbituric acid) was brought at room temperature 30 min before the assay performance. […] The protein concentration of the extracts was analysed with the Bradford assay protocol and the MDA values were normalized against protein content.

The test system of another series is catalase. The series can be described thus: Toxicity study: catalase levels. Format: in vivo, CD1 mice. The conditions noted are these: anaemic mice, 20 mM Fe, 100 μL, 10 days; ANOVA one-way test. How it is done: as §1, §2
The activity of catalase enzyme was detected by using a Catalase Kit (Arbor assay company, Catalogue number K033-H1). Mice tissues were rinsed in PBS to take out the excess of blood and weighed (100 mg of liver or 20 mg duodenal mucosa). The procedure of sample preparation and assay was performed according to manufacturing instructions. The tissue samples were homogenized in ice-cold assay medium with a glass homogenizer, centrifuged at 10,000×g for 15 min at 4 degrees. The supernatant was collected to continue with the assay. A standard with catalase-hydrogen peroxide enzyme was measured within 30 min after reconstitution. The produced colour reaction was read at 450 nm using a plate reader.

A short description of series [1]: Non-heme iron levels in liver. The conditions noted are these: anaemic mice, 20 mM Fe, 100 μL, 10 days. It counts as in vivo, CD1 mice. How it is done:
as §1
Non-heme iron was assayed according to the method of Foy et al. (Analytical Biochem. 1967; 18:559-563) as modified by Simpson & Peters (Br J Nutr. 1990; 63:79-89). Liver tissue was washed in ice-cold PBS, weighted (70 mg), and homogenized (1:5 w:v) in 0.15M NaCl-HEPES buffer (pH 7.4) with a glass Dounce homogenizer. 100 μl of the resulted extracted was boiled with 200 μl of TCA-sodium pyrophosphate and boil for 10 min, centrifuged at 10,000 RPM and collected the supernatant, the boiled extraction and centrifugation was repeated twice. From the total supernatant collection, 200 μL was mixed with 100 μL 4 of 0.23M ascorbic acid, 80 µL of 10 mM ferrozine and 420 μL of 2.0 M sodium-buffer acetate (pH 4.8). All samples were measured at 562 nm against the blank and compare with standard values.

The subject of another series is ferritin. The series can be described thus: Plasma ferritin levels (mouse ELISA kit). It counts as in vivo, CD1 mice. The conditions noted are these: anaemic mice, 20 mM Fe, 100 μL, 10 days. How it is done:
as §1
In this assay, the ferritin present in plasma samples reacts with the anti-Ferritin antibodies which have been adsorbed to the surface of polystyrene microliter wells. The assay was performed with a kit provided by Abcam company (Catalogue number, ab157713 Ferritin, mouse ELISA kit). The plasma samples were diluted 1:40 with the assay diluent provided in the kit. The amount of enzyme bound in the complex was measured by the addition of a chromo-genic substrate, 3,3′,5,5′-tetramethylbenzidine (TMB). The colorimetric reaction was measured at 450 nm in a plate reader. The quantity of ferritin in the test sample was interpolated from the standard curve with known concentrations of ferritin.
In general terms: An ELISA detects its analyte on a solid surface through an enzyme-linked reagent.

A short description of series [2]: Tissue distribution of 59Fe. The conditions noted are these: iron deficient mice, 4 hours after oral gavage, compared with the other iron source. It counts as in vivo, mouse. The method, then: Anaemic mice were generated using the method of Latunde-Dada et al, J. Nutr. 144 (2014) 1896-902. Mice (3 weeks old) were split into 4 groups (n=6), two groups were fed with normal iron diet (48 mg iron/Kg) and the other two with iron deficient diet (3 mg iron/kg) for 6 weeks. Before the experiment haemoglobin levels were measured to confirm the differences between the normal group and the iron deficient groups. The day before the treatment with ^59Fe labelled iron, all the mice were deprived of food overnight with water ad libitum. Normal (non anaemic) and iron deficient (anaemic) mice were gavaged with either 100 μl of the formulation of Example 4, or with ^59FeSO4-ascorbic acid (1:1) ([Fe]=21 mM). Four hours after the oral gavage the mice were sacrificed and tissues collected.
The tissues from the ^59Fe uptake study were used for an investigation of iron distribution (FIGS. 4-7). In the normal animals the majority of the iron is in the “carcase” (probably in blood and lymph).

For the next series, the system named is reduced GSH. The series can be described thus: Toxicity study: reduced GSH levels (ELISA). Format: in vivo, CD1 mice. To be noted: anaemic mice, 20 mM Fe, 100 μL, 10 days. The method, then:
as §1, §2
The assay was performed according to manufacturer's instructions.

The test system of a further series is anaemic mice. The series can be described thus: Haemoglobin levels in anaemic mice after treatment with oral iron (haemoglobin repletion study). To be noted: 10 days of gavage (Fe; 21 mM, 100 μl). It counts as in vivo, CD1 mice. The source says:
The procedure for this study was adopted from well established techniques (Kajarabille et al, Brit. J. Nutrition, 117 (2017) 767-774) (FIG. 8). There was a change of haemoglobin levels between the anaemic (12.8±2.4 g/dL) and normal animals (19.55±2.4 g/dL) (FIG. 9).
Male CD1 mice (3 weeks of age) were made Fe deficient by feeding a low-iron diet of 3-mg Fe/Kg diet based on the modified AIN-76A purified rodent diet (TD.80396; Harlan Teklad) for 3 weeks (i.e., until they were 6 weeks of age). Another group of mice were placed on a normal iron-sufficient diet (48-mg Fe/Kg diet) (TD.80394; Harlan Teklad) to serve as control. The diets were of identical composition except that the iron-sufficient diet contained iron added as ferric citrate. After this, blood was withdrawn from the tails to determine the initial Hb concentrations of the mice. The Fe-deficient mice were then divided into the treatment groups based on similar Hb concentrations. […] After the 10 days, the mice were weighed, anaesthetized, and blood samples were taken for Hb, serum iron, and serum ferritin determinations. The mice were then killed by anaesthesia followed by neck dislocation, and the spleen, duodenum, kidney, and liver samples were excised, snap frozen in liquid nitrogen, and stored at −70° C. until further analysis.

As to `O=S(=O)([O-])[O-].[Fe+2]` [FeSO4], in the series with malondialdehyde (MDA), the “concentration of malondialdehyde (MDA) in duodenal mucosa” value is reported as “no statistical differences between the groups” and the “concentration of malondialdehyde (MDA) in liver” value is on record as “no statistical differences between the groups”. Besides, in the series with catalase, the “catalase activity in duodenal mucosa” value is reported as “no statistical differences between the groups” and the “catalase activity in liver” value was “no statistical differences between the groups”. In addition, in series [1], the “non-heme iron levels in liver, Mean” value was 0.3637 nmol/mg. The plasma ferritin levels result with ferritin was “lower than that of normal mice”. Further, in series [2], the “Fe distribution in the liver” value was “greater distribution of Fe in the liver”. The “concentration of reduced GSH in liver” value in the series with reduced GSH (ANOVA one-way test) was “no statistical differences between the groups”. For the same molecule, the “concentration of reduced GSH in duodenal mucosa” value in the series with reduced GSH (P≤0.05, ANOVA one-way test) is “higher levels of GSH in duodenum in comparison with the untreated group”. In addition, the haemoglobin levels result with anaemic mice is recorded as “increased the haemoglobin levels in anaemic mice to those of normal mice”.
